Data from patent publication US20140343017A1, “PYRROLE COMPOUND” (Kabushiki Kaisha Yakult Honsha, priority 2012, published 2014).

How the values were obtained:
Assay in all cases: Inhibitory effect on growth of human cancer cells (in vitro), WST-8
Type in all cases: cell-based
[1] = test system: human non-small cell lung cancer A549 cells; conditions: Homo sapiens, A549, 96 h, 96 hours culture
Experimental: (§1) Each pyrrole compound of the present invention was studied for its effects on the growth of human non-small cell lung cancer A549 cells and human colorectal cancer HT-29 cells and HCT116 cells. The cells of each line were suspended in an RPMI1640 medium supplemented with 10% fetal bovine serum and inoculated at a cell density of 1000 cells/50 μL/well to a 96-well plate. After overnight culture, each compound diluted with a medium was added thereto at a concentration of 50 μL/well, and the cells were further cultured for 96 hours. After the completion of culture, WST-8 (Seikagaku Corp.) was added thereto at a concentration of 10 μL/well, and the cells were cultured at 37° C. for approximately 1 hour under 5% CO2 conditions, followed by measurement of absorbance at 450 nm.

[2] = test system: human colorectal cancer HT-29 cells; conditions: Homo sapiens, HT-29, 96 h, 96 hours culture, read-out: IC50 (nM) HT29
Experimental: as §1

[3] = test system: human colorectal cancer HCT116 cells; conditions: Homo sapiens, HCT-116, 96 h, 96 hours culture
Experimental: as §1

SMILES	IC50 [1] [nM]	IC50 [2] [nM]	IC50 [3] [nM]
COc1ccc(C(=O)c2c(CCl)[nH]c(-c3nnn(CCOC(C)=O)n3)c2C)cc1Br [Compound 172, 2-(5-(4-(3-bromo-4-methoxybenzoyl)-5-(chloromethyl)-3-methyl-1H-pyrrol-2-yl)-2H-tetrazol-2-yl)ethyl acetate]	47	34.5	36.9
Cc1[nH]c(-c2nnc(CCCl)o2)c(C)c1C(=O)c1cccc(Br)c1 [Compound 174, (3-bromophenyl)(5-(5-(2-chloroethyl)-1,3,4-oxadiazol-2-yl)-2,4-dimethyl-1H-pyrrol-3-yl)methanone]	77.1	38.6	44.6
Cc1[nH]c(-c2nnc(C3CC3)o2)c(C)c1C(=O)c1cccc(Br)c1 [Compound 177, (3-bromophenyl)(5-(5-cyclopropyl-1,3,4-oxadiazol-2-yl)-2,4-dimethyl-1H-pyrrol-3-yl)methanone]	1.5	0.4	0.4
Cc1[nH]c(-c2nnc(C(C)C)o2)c(C)c1C(=O)c1cccc(Br)c1 [Compound 178, (3-bromophenyl) (5-(5-isopropyl-1,3,4-oxadiazol-2-yl)-2,4-dimethyl-1H-pyrrol-3-yl)methanone]	71.8	36.9	45.1
Cc1[nH]c(-c2nnc(C3CCC3)o2)c(C)c1C(=O)c1cccc(Br)c1 [Compound 179, (3-bromophenyl) (5-(5-cyclobutyl-1,3,4-oxadiazol-2-yl)-2,4-dimethyl-1H-pyrrol-3-yl)methanone]	800	336	329
Cc1nnc(-c2[nH]c(C)c(C(=O)c3cccc(Br)c3)c2C)o1 [Compound 185, (3-bromophenyl) (2,4-dimethyl-5-(5-methyl-1,3,4-oxadiazol-2-yl)-1H-pyrrol-3-yl)methanone]	9.1	1.8	2.9
Cc1[nH]c(-c2nnc(C(F)F)o2)c(C)c1C(=O)c1cccc(Br)c1 [Compound 186, (3-bromophenyl)(5-(5-(difluoromethyl)-1,3,4-oxadiazol-2-yl)-2,4-dimethyl-1H-pyrrol-3-yl)methanone]	289	41.7	64.1
Cc1[nH]c(-c2nnc(C3(O)CC3)o2)c(C)c1C(=O)c1cccc(Br)c1 [Compound 188, (3-bromophenyl)(5-(5-(1-hydroxycyclopropyl)-1,3,4-oxadiazol-2-yl)-2,4-dimethyl-1H-pyrrol-3-yl)methanone]	37.8	35.1	40.4
Cc1[nH]c(-c2nnc(C3(C)CC3)o2)c(C)c1C(=O)c1cccc(Br)c1 [Compound 189, (3-bromophenyl)(2,4-dimethyl-5-(5-(1-methylcyclopropyl)-1,3,4-oxadiazol-2-yl)-1H-pyrrol-3-yl)methanone]	164	135	199
Cc1[nH]c(-c2nnc(C3CC3C)o2)c(C)c1C(=O)c1cccc(Br)c1 (stereo not drawn) [Compound 190, (3-bromophenyl) (2,4-dimethyl-5-(5-(2-methylcyclopropyl)-1,3,4-oxadiazol-2-yl)-1H-pyrrol-3-yl)methanone]	266	192	219
CCc1nnc(-c2[nH]c(C)c(C(=O)c3cccc([N+](=O)[O-])c3)c2C)o1 [Compound 195, (5-(5-ethyl-1,3,4-oxadiazol-2-yl)-2,4-dimethyl-1H-pyrrol-3-yl)(3-nitrophenyl)methanone]	12.2	8.5	9.9
Cc1[nH]c(-c2nnc(C3CC3)o2)c(C)c1C(=O)c1cccc([N+](=O)[O-])c1 [Compound 196, (5-(5-cyclopropyl-1,3,4-oxadiazol-2-yl)-2,4-dimethyl-1H-pyrrol-3-yl)(3-nitrophenyl)methanone]	9.9	6.2	5.5
CCc1nnc(-c2[nH]c(C)c(C(=O)c3ccc(OC)c(Br)c3)c2C)o1 [Compound 197, (3-bromo-4-methoxyphenyl)(5-(5-ethyl-1,3,4-oxadiazol-2-yl)-2,4-dimethyl-1H-pyrrol-3-yl)methanone]	3.9	0.9	1.4
Cc1[nH]c(-c2nnc(C3CC3)o2)c(C)c1C(=O)c1cccc(CO)c1 [Compound 199, (5-(5-cyclopropyl-1,3,4-oxadiazol-2-yl)-2,4-dimethyl-1H-pyrrol-3-yl)(3-(hydroxymethyl)phenyl)methanone]	19.5	9	10.6
Cc1c(-c2nnc(C3CC3)o2)[nH]c(C2SCCCS2)c1C(=O)c1cccc(Br)c1 [Compound 200, (3-bromophenyl) (5-(5-cyclopropyl-1,3,4-oxadiazol-2-yl)-2-(1,3-dithian-2-yl)-4-methyl-1H-pyrrol-3-yl)methanone]	389	209	647
COc1ccc(Br)cc1C(=O)c1c(C)[nH]c(-c2nnc(COC(C)=O)o2)c1C [Compound 202, (5-(4-(5-bromo-2-methoxybenzoyl)-3,5-dimethyl-1H-pyrrol-2-yl)-1,3,4-oxadiazol-2-yl)methyl acetate]	127	50.5	62.4
Cc1[nH]c(-c2nnc(CO)o2)c(C)c1C(=O)c1cc(Br)ccc1O [Compound 203, (5-bromo-2-hydroxyphenyl)(5-(5-(hydroxymethyl)-1,3,4-oxadiazol-2-yl)-2,4-dimethyl-1H-pyrrol-3-yl)methanone]	210	171	152
CC(=O)OCCc1nnc(-c2[nH]c(C)c(C(=O)c3cccc(Br)c3)c2C)o1 [Compound 204, 2-(5-(4-(3-bromobenzoyl)-3,5-dimethyl-1H-pyrrol-2-yl)-1,3,4-oxadiazol-2-yl)ethyl acetate]	31.1	5.9	8.9
Cc1[nH]c(-c2nnc(CCO)o2)c(C)c1C(=O)c1cccc(Br)c1 [Compound 205, (3-bromophenyl)(5-(5-(2-hydroxyethyl)-1,3,4-oxadiazol-2-yl)-2,4-dimethyl-1H-pyrrol-3-yl)methanone]	64.9	20.3	37
C=Cc1nnc(-c2[nH]c(C)c(C(=O)c3cccc(Br)c3)c2C)o1 [Compound 206, (3-bromophenyl)(2,4-dimethyl-5-(5-vinyl-1,3,4-oxadiazol-2-yl)-1H-pyrrol-3-yl)methanone]	31.5	8.8	9.5
CC(=O)OCc1nnc(-c2[nH]c(C)c(C(=O)c3cccc(Br)c3)c2C)o1 [Compound 210, (5-(4-(3-bromobenzoyl)-3,5-dimethyl-1H-pyrrol-2-yl)-1,3,4-oxadiazol-2-yl)methyl acetate]	205	39.3	42.9
Cc1[nH]c(-c2nnc(CO)o2)c(C)c1C(=O)c1cccc(Br)c1 [Compound 211, (3-bromophenyl) (5-(5-(hydroxymethyl)-1,3,4-oxadiazol-2-yl)-2,4-dimethyl-1H-pyrrol-3-yl)methanone]	183	44.1	49.1
Cc1[nH]c(-c2nnc(CN)o2)c(C)c1C(=O)c1cccc(Br)c1 [Compound 214, (5-(5-(aminomethyl)-1,3,4-oxadiazol-2-yl)-2,4-dimethyl-1H-pyrrol-3-yl)(3-bromophenyl)methanone]	999	230	286
CCc1nnc(-c2c(C)c(C(=O)c3cccc(Br)c3)c(C)n2C)o1 [Compound 223, (3-bromophenyl) (5-(5-ethyl-1,3,4-oxadiazol-2-yl)-1,2,4-trimethyl-1H-pyrrol-3-yl)methanone]	231	28.1	46.9
CCc1nnc(-c2c(C)c(C(=O)c3cccc(Br)c3)c(C)n2C(C)=O)o1 [Compound 224, 1-(3-(3-bromobenzoyl)-5-(5-ethyl-1,3,4-oxadiazol-2-yl)-2,4-dimethyl-1H-pyrrol-1-yl)ethanone]	1.8	1.3	1.7
CCc1nnc(-c2c(C)c(C(=O)c3cccc(Br)c3)c(C)n2S(C)(=O)=O)o1 [Compound 225, (3-bromophenyl)(5-(5-ethyl-1,3,4-oxadiazol-2-yl)-2,4-dimethyl-1-(methylsulfonyl)-1H-pyrrol-3-yl)methanone]	9.7	6.6	9.2
CCc1nnc(-c2c(C)c(C(=O)c3cccc(Br)c3)c(C)n2C(=O)COC(C)=O)o1 [Compound 226, 2-(3-(3-bromobenzoyl)-5-(5-ethyl-1,3,4-oxadiazol-2-yl)-2,4-dimethyl-1H-pyrrol-1-yl)-2-oxoethyl acetate]	0.7	0.3	0.4
CCc1nnc(-c2c(C)c(C(=O)c3cccc(Br)c3)c(C)n2S(=O)(=O)C2CC2)o1 [Compound 227, (3-bromophenyl) (1-(cyclopropylsulfonyl)-5-(5-ethyl-1,3,4-oxadiazol-2-yl)-2,4-dimethyl-1H-pyrrol-3-yl)methanone]	555	290	447
CCc1nnc(-c2c(C)c(C(=O)c3cccc(Br)c3)c(C)n2CCOC(C)=O)o1 [Compound 235, 2-(3-(3-bromobenzoyl)-2,4-dimethyl-5-(5-ethyl-1,3,4-oxadiazol-2-yl)-1H-pyrrol-1-yl)ethyl acetate]	738	172	239
